Assay: molar heat capacity at constant pressure
Details: 101.33 kPa, Crystal, Vacuum adiabatic calorimetry

O=C([O-])c1cnccn1.O=C([O-])c1cnccn1.O=C([O-])c1cnccn1.[Cr+3] [chromium(III) pyrazine-2-carboxylate]
Details	molar heat capacity at constant pressure [J/K/mol]
78.86 K	155.98
80 K	158.16
80.64 K	158.92
83.3 K	162.11
85 K	164.76
85.88 K	166.03
88.38 K	169.59
90 K	171.35
90.8 K	172.28
93.14 K	175.35
95 K	177.94
95.47 K	178.53
97.73 K	181.47
99.91 K	184.54
100 K	184.53
102.06 K	187.64
104.19 K	189.79
105 K	191.12
106.26 K	192.72
108.39 K	195.56
110 K	197.7
110.39 K	198.32
112.38 K	200.9
114.31 K	203.62
115 K	204.28
116.37 K	206.2
118.23 K	208.83
120 K	210.86
120.16 K	211.45
122.08 K	214.08
125 K	217.43
125.04 K	217.8
128.55 K	221.83
130 K	223.99
131.51 K	226.29
134.47 K	230.41
135 K	230.55
137.5 K	234.21
140 K	237.1
140.45 K	237.72
143.48 K	241.61
145 K	243.64
146.44 K	245.42
149.4 K	249.27
150 K	250.18
152.43 K	252.82
155 K	256.7
155.38 K	257.11
158.34 K	260.91
160 K	263.21
161.37 K	264.59
164.4 K	269.32
165 K	269.71
167.42 K	273.11
170 K	276.2
170.38 K	276.93
173.34 K	280.52
175 K	282.68
176.44 K	284.26
179.4 K	287.73
180 K	289.15
182.42 K	292.31
185 K	295.6
186.48 K	297.74
190 K	302.03
190.68 K	302.64
193.71 K	306.32
195 K	308.46
196.73 K	310.4
199.76 K	313.83
200 K	314.86
202.79 K	317.64
205 K	321.25
205.75 K	321.74
208.71 K	325.63
210 K	327.63
211.73 K	329.9
214.76 K	333.75
215 K	333.98
217.79 K	337.53
220 K	340.32
220.81 K	341.42
223.77 K	344.95
225 K	346.64
226.8 K	348.56
229.76 K	352.76
230 K	352.95
232.79 K	356.86

Reference: the NIST ThermoML archive (doi:10.1016/j.tca.2012.05.023)
